Data set [1] deals with nontransfected Expi293 cells (Mock). Description: Nonspecific binding to crude membrane of nontransfected cells (Mock). Also on record: species or system human. The following applies: 30 nM canagliflozin; Mock membrane. On the procedure: To examine the inhibition of binding to the crude membrane, mammalian Expi293 cells were co-transfected with the hMAP17 and hSGLT2 plasmids, as described. The cells were collected and disrupted by sonication in a hypotonic buffer (50 mM HEPES–NaOH (pH 7.5), 10 mM KCl and protease inhibitor cocktail) or Na^+-free hypotonic buffer (50 mM Tris–HCl (pH 7.5), 10 mM KCl and protease inhibitor cocktail). The cell debris were removed by centrifugation (2,000g, 5 min, 4 °C). The membrane fraction was collected by ultracentrifugation (112,000g, 30 min, 4 °C) and stored at −80 °C before use. The crude membrane (250 μg per sample) was incubated with SGLT2 inhibitor in an assay buffer (100 mM NaCl and 10 mM HEPES/Tris, pH 7.4) or Na^+-free assay buffer (100 mM choline chloride and 10 mM HEPES/Tris, pH 7.4) at room temperature for 2 h. Reactions were terminated by filtration through a GF/C filter plate (Corning) presoaked in assay buffer containing 0.1% bovine serum albumin. The sample in the filter plate was washed three times with the assay buffer and eluted with acetonitrile: water (80:20, v/v). The extract solution from the filter plate was diluted with water containing candesartan as an internal standard, and the SGLT2 inhibitor concentration was quantified via LC–MS/MS.
Nonspecific binding was measured using the crude membrane of nontransfected Expi293 cells. Specific binding was calculated by subtracting nonspecific binding from the binding of hSGLT2-expressing cells. Specific binding was normalized to hSGLT2 protein expression levels, measured via FSEC. The equilibrium dissociation constant (Kd) and maximum number of binding sites (Bmax) were calculated via nonlinear regression in GraphPad Prism 8.4.3. The specific binding of the hSGLT2 mutants was normalized to the Bmax of WT hSGLT2.
The concentrations of the extract solution from the filter plate and of the cell lysate were quantified using a tandem mass spectrometry QTRAP6500 System (SCIEX) coupled with an ACQUITY UPLC system (Waters) using the internal standard method. Mobile phases A and B used 10 mM of ammonium bicarbonate and acetonitrile, respectively.

A further data set relates to SGLT2. Also on record: method as in literature. The following applies: referee comment in peer review file; ref literature; cited from earlier work.
A further data set deals with SGLT1 and SGLT2. To be noted: in words; cited from earlier work.
A further data set deals with T1, hSGLT2 D201A (Homo sapiens, UniProt P31639, D201A).
T1 sequence (P31639 1-672 D201A): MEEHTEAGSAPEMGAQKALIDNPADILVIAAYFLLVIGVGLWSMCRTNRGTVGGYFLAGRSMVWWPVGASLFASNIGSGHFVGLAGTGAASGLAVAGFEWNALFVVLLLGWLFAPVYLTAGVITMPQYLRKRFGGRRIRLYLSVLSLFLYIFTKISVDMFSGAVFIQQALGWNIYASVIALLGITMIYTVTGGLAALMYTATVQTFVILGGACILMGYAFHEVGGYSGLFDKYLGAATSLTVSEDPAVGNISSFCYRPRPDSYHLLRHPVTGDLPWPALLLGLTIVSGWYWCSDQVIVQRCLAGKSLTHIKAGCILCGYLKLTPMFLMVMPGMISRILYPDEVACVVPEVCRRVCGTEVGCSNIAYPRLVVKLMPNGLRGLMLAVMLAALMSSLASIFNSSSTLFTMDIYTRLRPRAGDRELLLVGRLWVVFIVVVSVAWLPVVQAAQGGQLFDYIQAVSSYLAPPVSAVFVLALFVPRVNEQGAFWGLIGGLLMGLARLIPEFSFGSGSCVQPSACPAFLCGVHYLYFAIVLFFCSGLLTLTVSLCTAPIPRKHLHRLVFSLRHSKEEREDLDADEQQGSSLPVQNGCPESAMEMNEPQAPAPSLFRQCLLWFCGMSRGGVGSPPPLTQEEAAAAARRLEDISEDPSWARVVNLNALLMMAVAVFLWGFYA
T1 sequence (Q13113 1-114 partner): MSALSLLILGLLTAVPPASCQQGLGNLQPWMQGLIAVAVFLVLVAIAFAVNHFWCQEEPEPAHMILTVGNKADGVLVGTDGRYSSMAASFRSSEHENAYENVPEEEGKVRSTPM
The experiment in a line: SGLT2 inhibitor-binding assay (AS-MS), crude membrane, D201A mutant. Also on record: expressed in transfected cells; host or cells: Expi293 cells, crude membrane fraction. To be noted: 30 nM canagliflozin; D201A; replicates. From the text:
hSGLT2 complementary DNA and human MAP17 cDNA were synthesized and codon-optimized for expression in human cell lines. Both cDNAs were cloned into the pcDNA3.4 vector. The hSGLT2 sequence was fused with an N-terminal signal sequence from human trypsinogen 1, a His10 tag, and sfGFP, followed by a human rhinovirus 3C protease (HRV3C protease) recognition site. Point mutations were introduced into this construct using site-directed mutagenesis. These plasmids were utilized for all experimental procedures conducted in this study.
To examine the inhibition of binding to the crude membrane, mammalian Expi293 cells were co-transfected with the hMAP17 and hSGLT2 plasmids, as described. […] The extract solution from the filter plate was diluted with water containing candesartan as an internal standard, and the SGLT2 inhibitor concentration was quantified via LC–MS/MS.
Nonspecific binding was measured using the crude membrane of nontransfected Expi293 cells. Specific binding was calculated by subtracting nonspecific binding from the binding of hSGLT2-expressing cells. Specific binding was normalized to hSGLT2 protein expression levels, measured via FSEC. The equilibrium dissociation constant (Kd) and maximum number of binding sites (Bmax) were calculated via nonlinear regression in GraphPad Prism 8.4.3. […]

The test system of data set [2] is β-glucosidase in the intestine. The arrangement: method as in PMID 21358697. The following applies: O-glucoside hydrolyzed by β-glucosidase in the intestine; cited from earlier work.
The subject of a further data set is Mock cells. The experiment in a line: α-MG uptake in mock (empty vector) HEK293 cells. Type of data set: cell-based, human. To be noted: Control (no inhibitor). On the procedure: HEK293 cells (ECACC 85120602) were maintained in Dulbecco’s modified Eagle medium (Gibco) supplemented with 10% fetal bovine serum (Thermo Scientific), 2 mM L-glutamine, 100 U ml^−1 benzylpenicillin and 100 µg ml^−1 streptomycin at 37 °C in a humidified atmosphere (5% CO2 in air). HEK293 cells were seeded at 1.0 × 10^5 cells per well in poly-L-lysine coated 24-well plates. The cells in each well were transiently transfected with 0.25 µg hMAP17 plasmid and 0.50 µg hSGLT2 plasmid using Lipofectamine 2000 (Life Technologies) and cultured for 48 h. […]
Cell lysates were deproteinized by adding acetonitrile containing candesartan as the internal standard. The α-MG concentration was quantified via liquid chromatography–tandem mass spectrometry (LC–MS/MS) using the internal standard method.
Cellular protein content was determined using a bicinchoninic acid protein assay kit (Thermo Fisher Scientific). The uptake of α-MG was expressed as the ratio of concentration in the cells (in pmol per mg protein) to concentration in the medium (in pmol μl^−1); this is known as the cell-to-medium ratio (in μl per mg protein).
In the inhibition study, the cell-to-medium ratio of cells transfected with the empty vector was used as the background. […] IC50 was calculated via nonlinear regression using GraphPad Prism 8.4.3. […]

Structures are written as SMILES. Several values for one entry are separate records, joined by “and”; a condition that tells them apart may be missing. Equal entries are not always repeated.

Usually IC50 stands for the point on the concentration scale where inhibition reaches its midpoint.

`Cc1ccc([C@@H]2O[C@H](CO)[C@@H](O)[C@H](O)[C@H]2O)cc1Cc1ccc(-c2ccc(F)cc2)s1` [Canagliflozin]: in data set [1], the “Canagliflozin binding (% of hSGLT2)” value was 2.562 % of hSGLT2 and 2.489 % of hSGLT2 and 1.993 % of hSGLT2. In addition, the concentration for half-maximal inhibition (IC50) with SGLT2 was approximately 2.7 nM. Moreover, the “subtype specificity of inhibition (SGLT1 vs SGLT2)” value in the data set with SGLT1 and SGLT2 is “SGLT2-specific inhibition”. The “Canagliflozin binding (% of WT)” value at hSGLT2 D201A is 127.94 % of WT and 124.539 % of WT and 148.349 % of WT.
Turning to `O=C(CCc1ccc(O)cc1)c1c(O)cc(O)cc1O[C@@H]1O[C@H](CO)[C@@H](O)[C@H](O)[C@H]1O` [Phlorizin], the metabolic stability result in data set [2] is reported as “poor”.
In the case of `CO[C@H]1O[C@H](CO)[C@@H](O)[C@H](O)[C@H]1O` [α-MG, α-methyl-D-glucopyranoside], the α-MG uptake with Mock cells is 1.2395 μL/mg-protein and 1.0638 μL/mg-protein and 1.0076 μL/mg-protein and 1.0525 μL/mg-protein.

The record behind these values is article PMC10803289, “Transport and inhibition mechanism of the human SGLT2–MAP17 glucose transporter” (Nature Structural & Molecular Biology, 2023).
